Measured values taken from patent US5075440A, “Novel pyrido[2,3-f](1,4)thiazepines and pyrido[3,2-b](1,5)benzothiazepines” (Ortho Pharmaceutical Corporation, priority 1990, dated 1991).
pIC50: −log10 of the molar value. Values joined by “and” are separate entries in the source; they are usually repeats but may differ in a detail not shown here. Identical values can stand only once.

Assays:
[1] = system: trachealis muscle tissue; assay: Inhibition of calcium dependent smooth muscle contraction, trachea (P#176 Trach); design: species or system dog; conditions: 50 mM KCl contraction; for inhibition at 0.01 µM / inhibition at 0.1 µM / inhibition at 1 µM / inhibition at 2 µM / inhibition at 0.3 µM / inhibition at 0.03 µM: Canis lupus familiaris, read-out: P#176 Trach % INHB/μM
Method: (§1) The test for inhibition of calcium dependent smooth muscle contraction is determined according to the following procedure:
(§2) The trachea and the aorta from dogs sacrificed by excess KCl injection are stored overnight at 4° C. in oxygenated Krebs-Henseleit buffer. Tracheal rings, one cartilage segment wide (5-10 mm), are cut starting from the bronchial end. Rings of aorta tissue of the same width are also prepared. After cutting the cartilage, the trachealis muscle tissue and the aorta tissue are suspended in oxygenated Krebs-Henseleit buffer at 37° C. in a 25 ml tissue bath. After a 60-minute equilibration period, the tissues are challenged with 10 μM carbachol. After 5 minutes, the tissues are rinsed and allowed to rest 50 minutes. The tissues are then challenged with 50 mM KCl and, after 30 minutes, the contractions are quantitated. The tissues are then rinsed and reequilibrated for 50 minutes. Test compounds are then added for 10 minutes, and the tissue is rechallenged with 50 mM KCl. After 30 minutes, the contraction is recorded and used to determine the % inhibition of control.
(§3) The percent inhibition of smooth muscle contraction is calculated from response data before and after drug treatment. [formula]

[2] = biological target: T1, Calcium Channel (3H-nitrendipine binding, heart membranes) (Oryctolagus cuniculus, UniProt P15381); assay: Inhibition of 3H-nitrendipine binding (P#166 Nit. Binding); design: species or system rabbit; conditions: for pIC50: rabbit heart membranes, 3H-nitrendipine 0.05-0.50 nM; for inhibition at 1 µM: @ 1.0 μM test compound
T1 construct: the heart is immediately removed, cleaned and chopped into small pieces; The tissue is homogenized; from tissue; host or cells: heart membranes of female New Zealand white rabbits (42,000×g pellet)
Method: The assay for inhibition of nitrendipine binding is performed using the following procedure:
Female, New Zealand white rabbits (1-2 kg) are sacrificed by cervical dislocation, and the heart is immediately removed, cleaned and chopped into small pieces. The tissue is homogenized in 5×volume of 0.05M Hepes buffer, pH 7.4. The homogenate is centrifuged at 4000×g for 10 minutes, and the supernatant is recentrifuged at 42,000×g for 90 minutes. The resulting membrane pellet is resuspended (0.7 ml/g weight) in 0.05M Hepes, pH 7.4 and stored at […] until used. Each tube of the binding assay contains ^3 H-nitrendipine (0.05-0.50 nM), buffer, membranes (0.10 ml), and test compound in a total volume of 1.0 ml. After 90 minutes at 4° C., the bound nitrendipine is separated from the unbound by filtration on Whatman GF/C filters. After rinsing, the filters are dried and counted in a liquid scintillation counter.
Non-specific binding of ^3 H-nitrendipine (that amount bound in the presence of excess unlabelled nitrendipine) is subtracted from the total bound to obtain specifically bound radiolabeled nitrendipine. The amount of specifically bound nitrendipine in the presence of a test compound is compared to that amount bound in the absence of a compound. A percent displacement (or inhibition) can then be obtained.

[3] = system: aorta tissue; assay: Inhibition of calcium dependent smooth muscle contraction, aorta (P#176 Aorta); design: species or system dog; conditions: 50 mM KCl contraction
Method: as §1, §2, §3

[4] = Canis lupus familiaris, 0.01 μM, read-out: P#176 Aorta % INHB/μM
[5] = Canis lupus familiaris, 1.0 μM, read-out: P#176 Aorta % INHB/μM
[6] = Canis lupus familiaris, 0.1 μM, read-out: P#176 Aorta % INHB/μM
[7] = Canis lupus familiaris, read-out: P#176 Aorta % INHB/μM

T1 sequence (P15381 whole entry, other chains not shown): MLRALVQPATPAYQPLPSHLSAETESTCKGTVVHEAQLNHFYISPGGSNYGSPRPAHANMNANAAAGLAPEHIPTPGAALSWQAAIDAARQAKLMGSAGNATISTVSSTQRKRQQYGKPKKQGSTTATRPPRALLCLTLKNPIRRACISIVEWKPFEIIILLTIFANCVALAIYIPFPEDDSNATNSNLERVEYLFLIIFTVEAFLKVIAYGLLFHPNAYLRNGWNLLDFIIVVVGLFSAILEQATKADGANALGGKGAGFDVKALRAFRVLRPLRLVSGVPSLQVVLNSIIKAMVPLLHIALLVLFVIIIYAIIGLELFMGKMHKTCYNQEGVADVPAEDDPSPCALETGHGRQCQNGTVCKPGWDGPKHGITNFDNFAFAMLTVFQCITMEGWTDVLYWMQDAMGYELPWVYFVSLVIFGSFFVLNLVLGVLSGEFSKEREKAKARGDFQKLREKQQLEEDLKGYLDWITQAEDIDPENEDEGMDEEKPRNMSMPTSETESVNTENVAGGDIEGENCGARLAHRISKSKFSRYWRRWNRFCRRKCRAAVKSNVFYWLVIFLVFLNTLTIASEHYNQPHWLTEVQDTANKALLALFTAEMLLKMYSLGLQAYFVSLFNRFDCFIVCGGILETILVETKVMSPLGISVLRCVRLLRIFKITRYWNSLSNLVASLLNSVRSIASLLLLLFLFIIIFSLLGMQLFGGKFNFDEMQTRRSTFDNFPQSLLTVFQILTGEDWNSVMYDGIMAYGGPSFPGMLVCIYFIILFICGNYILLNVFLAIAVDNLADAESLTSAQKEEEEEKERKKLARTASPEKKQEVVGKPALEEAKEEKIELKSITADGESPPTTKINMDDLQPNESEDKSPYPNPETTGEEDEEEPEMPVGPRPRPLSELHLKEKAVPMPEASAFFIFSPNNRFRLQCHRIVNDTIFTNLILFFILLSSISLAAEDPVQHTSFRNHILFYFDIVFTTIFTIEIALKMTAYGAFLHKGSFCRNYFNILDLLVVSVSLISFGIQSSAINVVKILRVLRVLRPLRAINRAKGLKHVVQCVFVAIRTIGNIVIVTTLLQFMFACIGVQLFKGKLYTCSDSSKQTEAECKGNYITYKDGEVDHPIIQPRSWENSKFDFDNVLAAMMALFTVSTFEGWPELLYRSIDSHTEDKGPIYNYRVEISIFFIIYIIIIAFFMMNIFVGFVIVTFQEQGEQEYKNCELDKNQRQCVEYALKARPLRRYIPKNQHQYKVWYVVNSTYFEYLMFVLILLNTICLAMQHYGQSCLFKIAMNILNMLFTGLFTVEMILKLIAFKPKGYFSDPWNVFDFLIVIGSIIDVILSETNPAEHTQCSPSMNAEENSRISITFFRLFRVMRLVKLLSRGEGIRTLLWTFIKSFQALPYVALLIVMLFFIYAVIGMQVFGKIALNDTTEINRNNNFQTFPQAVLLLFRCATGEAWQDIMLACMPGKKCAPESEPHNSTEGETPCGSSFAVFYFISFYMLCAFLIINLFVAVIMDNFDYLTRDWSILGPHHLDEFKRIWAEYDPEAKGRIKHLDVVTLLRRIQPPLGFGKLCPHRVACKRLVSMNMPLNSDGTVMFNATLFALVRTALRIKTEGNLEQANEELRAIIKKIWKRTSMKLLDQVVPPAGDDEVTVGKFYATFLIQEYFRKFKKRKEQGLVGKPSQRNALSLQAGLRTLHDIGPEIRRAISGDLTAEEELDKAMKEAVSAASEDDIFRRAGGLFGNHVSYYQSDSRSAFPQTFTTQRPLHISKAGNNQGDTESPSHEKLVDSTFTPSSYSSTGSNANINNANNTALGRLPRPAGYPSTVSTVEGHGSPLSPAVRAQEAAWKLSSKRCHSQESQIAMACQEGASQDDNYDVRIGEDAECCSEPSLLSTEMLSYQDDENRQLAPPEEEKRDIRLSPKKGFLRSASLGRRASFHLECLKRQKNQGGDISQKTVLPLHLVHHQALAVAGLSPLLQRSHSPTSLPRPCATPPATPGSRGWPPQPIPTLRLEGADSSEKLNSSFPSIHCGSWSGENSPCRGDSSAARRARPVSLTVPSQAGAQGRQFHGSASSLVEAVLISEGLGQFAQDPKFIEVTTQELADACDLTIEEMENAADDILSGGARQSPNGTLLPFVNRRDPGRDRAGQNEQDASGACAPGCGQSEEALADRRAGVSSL
T1 sequence (P13806 27-960 partner limits assumed, other chains not shown): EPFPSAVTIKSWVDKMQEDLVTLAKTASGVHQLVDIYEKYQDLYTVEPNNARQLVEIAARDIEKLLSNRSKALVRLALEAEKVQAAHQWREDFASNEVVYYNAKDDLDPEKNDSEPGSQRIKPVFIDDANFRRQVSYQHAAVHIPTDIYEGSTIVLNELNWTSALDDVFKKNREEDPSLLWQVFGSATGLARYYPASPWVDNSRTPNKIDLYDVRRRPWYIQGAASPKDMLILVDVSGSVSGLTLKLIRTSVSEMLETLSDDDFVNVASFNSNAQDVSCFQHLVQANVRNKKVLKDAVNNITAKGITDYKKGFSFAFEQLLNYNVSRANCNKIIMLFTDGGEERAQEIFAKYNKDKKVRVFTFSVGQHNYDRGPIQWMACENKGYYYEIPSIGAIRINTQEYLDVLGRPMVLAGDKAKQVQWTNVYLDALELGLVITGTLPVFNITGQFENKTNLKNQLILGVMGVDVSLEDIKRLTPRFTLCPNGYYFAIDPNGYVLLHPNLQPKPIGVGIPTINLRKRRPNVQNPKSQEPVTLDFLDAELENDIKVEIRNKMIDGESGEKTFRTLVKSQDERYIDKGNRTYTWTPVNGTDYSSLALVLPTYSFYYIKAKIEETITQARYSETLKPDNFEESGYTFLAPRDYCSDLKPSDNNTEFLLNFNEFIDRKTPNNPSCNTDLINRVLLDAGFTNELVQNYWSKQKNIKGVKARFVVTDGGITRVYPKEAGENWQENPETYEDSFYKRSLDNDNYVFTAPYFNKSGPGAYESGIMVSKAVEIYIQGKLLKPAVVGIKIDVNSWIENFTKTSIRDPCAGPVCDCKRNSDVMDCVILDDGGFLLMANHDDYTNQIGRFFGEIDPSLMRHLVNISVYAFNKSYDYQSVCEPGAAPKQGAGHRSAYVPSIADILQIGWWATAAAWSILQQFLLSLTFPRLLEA
T1 sequence (P13806 961-1106 partner limits assumed, other chains not shown): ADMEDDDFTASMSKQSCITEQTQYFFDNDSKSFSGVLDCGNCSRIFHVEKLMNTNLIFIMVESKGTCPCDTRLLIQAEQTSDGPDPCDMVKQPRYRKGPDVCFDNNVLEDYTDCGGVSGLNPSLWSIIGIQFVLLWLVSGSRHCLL

| SMILES | pIC50 [2] | inhibition at 0.01 µM [3, 4] | inhibition at 1 µM [3, 5] | inhibition at 2 µM ([1]; 2.0 μM) | inhibition at 0.1 µM [3, 6] | inhibition at 0.3 µM [1] | other results |
| --- | --- | --- | --- | --- | --- | --- | --- |
| CCOC(=O)C1=C(C)NC2=C(C1c1c(F)c(F)c(F)c(F)c1F)S(=O)(=O)CCN(C)C2 (stereo not shown) [pentafluoro / Me / ethyl, Ethyl 4,7-dimethyl-1,1-dioxo-2,3,4,5,6,9-hexahydro-9-(2,3,4,5,6-pentafluorophenyl)-pyrido[2,3-f][1,4]-thiazepine-8-carboxylate] | 7.28 | 50% | 97% | – | – | – | inhibition at 0.01 µM [1]: 35%; inhibition at 0.1 µM ([1]; 0.1 μM): 73%; inhibition at 1 µM [1]: 95% |
| CCOC(=O)C1=C(C)NC2=C(C1c1c(F)c(F)c(F)c(F)c1F)S(=O)(=O)CCN(C(=O)OC(C)(C)C)C2 (stereo not shown) [pentafluoro / BOC / ethyl] | – | – | 37% | 7% | 0% | – | inhibition at 1 µM [2]: 24% |
| CCOC(=O)C1=C(C)NC2=C(C1c1c(F)cccc1Cl)S(=O)(=O)CCNC2 (stereo not shown) [2-Cl, 6-F / H / ethyl] | 6.06 | 4.8% | 86% | 88% | – | 56% | – |
| CCOC(=O)C1=C(C)NC2=C(C1c1cccc(Cl)c1Cl)S(=O)(=O)CCNC2 (single isomer, unassigned) [2,3-dichloro / H / ethyl, Ethyl 9-(2,3-dichlorophenyl)-1,1-dioxo-2,3,4,5,6,9-hexahydro-7-methylpyrido[2,3-f][1,4]-thiazepine-8-carboxylate] | – | – | – | – | – | 24% | inhibition at 0.03 µM [1]: 25% |
| CCOC(=O)C1=C(C)NC2=C(C1c1ccccc1C(F)(F)F)S(=O)(=O)CCN(C(=O)OC(C)(C)C)C2 (stereo not shown) [2-CF3 / BOC / ethyl] | – | – | 47% | 50% | 37% | 24% | inhibition at 1 µM [2]: 7% |
| CCOC(=O)C1=C(C)NC2=C(C1c1cccc(Cl)c1Cl)S(=O)(=O)CCN(Cc1ccccc1)C2 (stereo not shown) [2,3-dichloro / Bz / ethyl, Ethyl 4-N-Benzyl-9-(2,3-dichlorophenyl) -1,1-dioxo-2,3,4,5,6,9-hexahydro-7-methylpyrido [2,3-f][1,4]thiazepine-8-carboxylate] | 6.68 | – | 79% | 32% | – | – | inhibition at 0.1 µM ([1]; 0.1 μM): 10% |
| CC1=C(C(=O)OCCO)C(c2cccc(Cl)c2Cl)C2=C(CNCCS2(=O)=O)N1 (stereo not shown) [2,3-dichloro / H / 2-hydroxyethyl] | – | – | 0% | – | – | – | inhibition at 10 µM [3, 7]: 56% |
| CCOC(=O)C1=C(C)NC2=C(C1c1ccccc1[N+](=O)[O-])S(=O)(=O)CCNC2 (stereo not shown) [2-nitro / H / ethyl] | – | 27% | 77% | 75% | 47% | 45% | inhibition at 0.1 µM ([1]; 0.1 μM): 12% |
| CCOC(=O)C1=C(C)NC2=C(C1c1cccc3nonc13)S(=O)(=O)CCNC2 (stereo not shown) [2,3-(2,1,3 oxadiazolyl) / H / ethyl] | 6.18 | – | 83% | 68% | 22% | 22% | – |
| CCOC(=O)C1=C(C)NC2=C(C1c1cccc(Cl)c1Cl)S(=O)(=O)CCN(CC)C2 (stereo not shown) [2,3-dichloro / Et / ethyl, Ethyl 9-(2,3-dichlorophenyl)-1,1-dioxo-4-ethyl-2,3,4,5,6,9-hexahydro-7-methyl-pyrido[2,3-f][1,4]-thiazepine-8-carboxylate] | 7.22 | 19% | 96% | – | 76% | 70% | inhibition at 0.01 µM [1]: 33%; inhibition at 1 µM [1]: 90% |
| CCOC(=O)C1=C(C)NC2=C(C1c1cccc(Cl)c1Cl)S(=O)(=O)c1ccccc1N(C=O)C2 (stereo not shown) [2,3-dichloro / CHO / ethyl, Ethyl 4-(2,3-dichlorophenyl)-5,5-dioxo-10-formyl-2-methyl-1,4,10,11-tetrahydropyrido[3,2-b][1,5]-benzothiazepine-3-carboxylate] | – | 33% | 74% | 73% | 50% | 35% | inhibition at 0.01 µM [1]: 38% |
| CC(=O)OCCOC(=O)C1=C(C)NC2=C(C1c1cccc(Cl)c1Cl)S(=O)(=O)CCNC2 (stereo not shown) [2,3-dichloro / H / 2-acetoxyethyl, 2-Acetoxyethyl 9-(2,3-Dichlorophenyl) -1,1-dioxo-2,3,4,5,6,9-hexahydro-7-methylpyrido [2,3-f][1,4]thiazepine-8-carboxylate] | – | – | 72% | – | 18% | – | inhibition at 0.3 µM ([3]; Canis lupus familiaris, 0.3 μM, read-out: P#176 Aorta % INHB/μM): 62% |
| CC(=O)OCCOC(=O)C1=C(C)NC2=C(C1c1cccc(Cl)c1Cl)S(=O)(=O)CCN(C)C2 (stereo not shown) [2,3-dichloro / Me / 2-acetoxyethyl, 2-Acetoxyethyl 9-(2,3-dichlorophenyl)-4,7-dimethyl-1,1-dioxo-2,3,4,5,6,9-hexahydropyrido[2,3-f][1,4]-thiazepine-8-carboxylate] | – | 0% | 89% | – | 26% | – | – |
| CCOC(=O)C1=C(C)NC2=C(C1c1cccc(Cl)c1Cl)S(=O)(=O)CCNC2 (single isomer, unassigned) [2,3-dichloro / H / ethyl] [Ethyl 9-(2,3-dichlorophenyl)-1,1-dioxo-2,3,4,5,6,9-hexahydro-7-methylpyrido[2,3-f][1,4]-thiazepine-8-carboxylate] | – | – | – | – | – | – | P#176 Trach % INHB/μM ([1]; 0.1 μM): 2% and 47%; P#176 Trach % INHB/μM ([1]; 2.0 μM): 54% and 96%; P#176 Aorta % INHB/μM ([3]; 0.01 μM): 0% and 14%; P#176 Aorta % INHB/μM ([3]; 0.1 μM): 0% and 67%; P#176 Aorta % INHB/μM ([3]; 1.0 μM): 69% and 97% |
| CCOC(=O)C1=C(C)NC2=C(C1c1cccc(Cl)c1Cl)S(=O)(=O)CCN(C(=O)CN)C2 (stereo not shown) [2,3-dichloro / NH2 CH2 CO / ethyl] | – | – | 20% | 36% | – | 6% | – |
| CCCCCCCN1CCS(=O)(=O)C2=C(C1)NC(C)=C(C(=O)OCC)C2c1cccc(Cl)c1Cl (stereo not shown) [2,3-dichloro / hept / ethyl] | – | – | – | 27% | 4% | – | – |
| CC1=C(C(=O)OCCO)C(c2cccc(Cl)c2Cl)C2=C(CN(C)CCS2(=O)=O)N1 (stereo not shown) [2,3-dichloro / Me / 2-hydroxyethyl] | – | – | 62% | – | 14% | – | inhibition at 3 µM ([3]; Canis lupus familiaris, 3.0 μM, read-out: P#176 Aorta % INHB/μM): 77%; inhibition at 10 µM [3, 7]: 95% |
| CCOC(=O)C1=C(C)NC2=C(C1c1cccc([N+](=O)[O-])c1)S(=O)(=O)CCN(CC)C2 (stereo not shown) [3-nitro / Et / ethyl, Ethyl 1,1-dioxo-4-ethyl-2,3,4,5,6,9-hexahydro-7-methyl-9-(3-nitrophenyl)-pyrido[2,3-f][1,4]-thiazepine-8-carboxylate] | – | 5% | – | – | 73% | 92% | inhibition at 0.03 µM [1]: 50%; inhibition at 0.1 µM ([1]; 0.1 μM): 73% |
| CC1=C(C(=O)OCCN(C)Cc2ccccc2)C(c2cccc(Cl)c2Cl)C2=C(CN(C)CCS2(=O)=O)N1 (stereo not shown) [2,3-dichloro / Me / NBzNMe-ethyl] | 6.82 | – | – | 88% | – | 71% | inhibition at 0.03 µM [1]: 28%; inhibition at 0.1 µM ([1]; 0.1 μM): 54% |
